Source: patent publication EP1180991B1, “GAMBOGIC ACID DERIVATIVES AS ACTIVATORS OF CASPASES AND INDUCERS OF APOPTOSIS” (Cytovia, Inc., priority 1999, dated 2000)

Experiments:
[1] = test system: KB-V1; conditions: Lin et al. 1993; cited from earlier work
[2] = test system: T47D cells; test: Nuclear fragmentation, Syto16 DNA stain (Example 94); assay type: cell-based, human; conditions: 10 µM, 24 h (Fig. 2B)
Protocol: T47D cells were grown and plated as described in Example 90. The cells were treated with 10 µM of gambogic acid and the plate was incubated for up to 24 h at 37°C in a 5% CO2-95% humidity incubator. At 24 h, the cells were incubated with a live cell nucleic acid stain, Syto16 (Molecular Probes) which stains DNA. After 2 washes with PBS, cells were examined under a fluorescence microscope. […] Nuclear fragmentation is a clear indicator of cellular apoptosis.

CC(C)=CCC[C@]1(C)C=Cc2c(O)c3c(c(CC=C(C)C)c2O1)O[C@]12C(=C[C@@H]4C[C@H]1C(C)(C)O[C@@]2(C/C=C(/C)C(=O)O)C4=O)C3=O [Example 1, Gambogic Acid]
cytotoxicity [1]: cytotoxic | nuclear fragmentation [2]: condensed and fragmented nuclei in a large population of the cells
